In PubChem BioAssay (NCI):
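Briefly, cells in 96-well plates were exposed to five compound concentrations for 48 h, and endpoints were estimated by linear interpolation. The concentration for 50% growth inhibition is given as GI50. Definition used: TGI = concentration required for complete inhibition of growth.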

How the values were obtained:
Assay in all cases: DTP human tumour cell line panel, 48 h
[1] = test system: 786-0 renal
[2] = test system: EKVX NSCLC
[3] = test system: HOP-92 NSCLC
[4] = test system: K-562 leukemia
[5] = test system: SF-268 CNS
[6] = test system: SK-MEL-2 melanoma
[7] = test system: SW-620 colon
[8] = test system: HS 578T breast
[9] = test system: MCF7 breast

Compound	TGI [1] [µM]	TGI [2] [µM]	TGI [3] [µM]	TGI [4] [µM]	TGI [5] [µM]	TGI [6] [µM]	TGI [7] [µM]	TGI [8] [µM]	TGI [9] [µM]	GI50 [1] [µM]	GI50 [2] [µM]	GI50 [3] [µM]	GI50 [4] [µM]	GI50 [5] [µM]	GI50 [6] [µM]	GI50 [7] [µM]
CCCCCCCCCCCCOC(=S)NC	34.2	36.7	31.5	45.9	36	28.1	32.6									
CC(=O)NNc1nc(C)c(C(/C=C/c2ccc(Cl)cc2)=N/NC(=S)NN)s1	> 100	> 100	> 100	> 100	> 100	> 100	> 100									
COc1cc(CCC(=O)NS(=O)(=O)c2ccccc2)cc(OC)c1OC	> 100	> 100	> 100	> 100	> 100	> 100	> 100									
Oc1oc(-c2ccccc2)nc1/C=C1/C=NN=N1	> 100	> 100	> 100	> 100	> 100	> 100	> 100	> 100	> 100							
CN(Cc1ccccc1)c1nc(=[N+](C)C)ss1	> 100	> 100	> 100	> 100	> 100	> 100	> 100									
Cc1cccc(NC(=O)Cc2nc3ccccc3s2)c1C	> 100	> 100		> 100	> 100	> 100	> 100									
CCc1ccccc1NC(=O)C1=C(C)NC(C)=C(C(=O)Nc2ccccc2CC)C1c1ccc(NC(C)=O)cc1	> 100	> 100	90.6	77.9	> 100	70.1	> 100									
O/N=C1/C(=C/c2ccc(Cl)cc2)CCCC1C(NO)c1ccc(Cl)cc1 (stereo unspecified)	42.7	74.8		62.2	40.2	68.5	> 100									
CCCCCC/C=C/CCCCCCCc1cccc(O)c1C(=O)O	> 100	> 100		> 100	> 100	> 100	> 100									
O=C(O)C1=C(Cl)c2ccccc2S1(=O)=O	> 100	> 100	> 100	> 100	> 100	> 100	> 100									
C/C(CC(=O)Nc1ccc(NC(=O)/C(C)=N/NS(=O)(=O)c2ccc(C)cc2)cc1)=N\NS(=O)(=O)c1ccc(C)cc1	> 100	> 100	> 100	> 100	> 100	> 100	> 100									
CC(=O)Oc1cc(OC(C)=O)c2cc3c(cc2c1OC(C)=O)C(=O)C1(CCCC1)C3=O	31.5	38	28.6	49.3	66.5		39.4									
N#CNc1nc(C(=O)Nc2ccc(Cl)cc2)cc(-c2ccccc2)n1	> 100	> 100	> 100	> 100	> 100	> 100	> 100									
CCN1CCC(O)(c2ccc(Cl)c(Cl)c2)C(C(=O)c2ccc(Cl)c(Cl)c2)C1 (stereo unspecified)	29.1	33.6	29	37.7	38.6	31.9	38.7									
CC(=O)[CH-]C(=O)c1ccccc1.CC(=O)[CH-]C(=O)c1ccccc1.CC[O-].O=C1C=C([O-])C(=O)c2ccccc21.[Ti+4]	> 100	> 100	82.8	> 100	> 100	86.3	> 100			> 100	25.9	26.2	> 100	> 100	9.07	33
CC(=O)OC1C/C(C)=C/[C@H](O)CC(C)/C=C/[C@@]2(C)CCC(C(C)(C)O)C12 (stereo partly specified)	> 100	> 100	> 100	> 100	> 100	> 100	> 100									
O=C(Nc1ccccc1)OCc1nc2c([nH]1)C(=O)C=CC2=O	32.5	41	45.1	7.36		34.2	8.79									
CN(/C(=N\O)c1ccccc1)c1ccccc1	89	74.3	62.5		97	70.1	> 100									
O/N=C1/C(=C/c2ccccc2)CCCC1C(NO)c1ccccc1 (stereo unspecified)	> 100	> 100	> 100	> 100	> 100	> 100	> 100									
